Results: patent US20260026479A1, “GENETICALLY ENGINEERED MICE MODELS FOR MULTIPLE MYELOMA” (FUNDACIÓN PARA LA INVESTIGACIÓN MÉDICA APLICADA, priority 2022, published 2026)

How the values were obtained:
[1] = molecular target: T1, MYC (Homo sapiens, UniProt P01106); assay: MYC expression and phosphorylation after treatment (Western blot, qRT-PCR), human MM cell lines; type: cell-based
T1 construct: Western blot analysis of MYC protein expression in human MM cell lines; endogenous in cells; host or cells: human MM cell lines (of RPMI8226, KMS12, KMS26, KMS11, MM1S, U266, K620, JJN3, H929, MOLP2)
T1 sequence (P01106 whole entry): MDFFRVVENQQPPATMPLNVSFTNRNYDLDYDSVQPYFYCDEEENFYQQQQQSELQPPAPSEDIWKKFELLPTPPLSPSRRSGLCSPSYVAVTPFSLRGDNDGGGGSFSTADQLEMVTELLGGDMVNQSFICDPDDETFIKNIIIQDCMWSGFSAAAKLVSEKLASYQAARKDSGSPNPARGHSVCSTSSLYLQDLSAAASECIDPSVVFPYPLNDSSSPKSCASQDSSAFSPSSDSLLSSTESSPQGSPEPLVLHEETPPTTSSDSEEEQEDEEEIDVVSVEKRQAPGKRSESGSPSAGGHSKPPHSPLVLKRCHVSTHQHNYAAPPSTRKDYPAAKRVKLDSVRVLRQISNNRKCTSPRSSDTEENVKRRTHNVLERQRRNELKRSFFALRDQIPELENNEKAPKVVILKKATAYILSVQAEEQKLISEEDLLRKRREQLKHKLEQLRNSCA
Procedure: (§1) A total of 1 μg of total RNA from GFP^+-sorted cells was isolated with a NucleoSpin RNA kit (Macherey-Nagel) and reverse transcribed into cDNA using MMLV enzyme technology (Invitrogen). PCR was performed on an ABI Viia7 instrument using SYBR green fluorophore and primers designed to amplify specific mouse or human genes. Specific primers are listed in the Key Resources Table.
(§2) Ten cell lines derived from MM patients (RPMI8226, KMS12, KMS26, KMS11, MM1S, U266, K620, JJN3, H929, and MOLP2) were included in this study. All have been validated according to the AmpFLSTR® Identifiler®, were tested for Mycoplasma sp.
Mice were monitored twice weekly for signs of disease and were then sacrificed. […] The samples that were able to grow for weeks ex vivo were tested for the presence of the original transgenic lesions and then characterized. Eight MM-derived cells lines established from mice carrying different lesions. In vitro therapy assays. For viability assays, murine or human MM cells were seeded in 96-well black culture plates and treated with different drugs alone or in combination for 48 hours. Cell viability was quantified using a Deep Blue Cell Viability™ Kit (Biolegend) and analyzed with a Skanit Varioskan Flash 2.4.3 (Thermo Scientific) fluorometer. Treatments were administered to cells at a density of 0.3×10^6 cells/ml, and all tests were performed in triplicate. […]

[2] = tested on: murine MM cells; assay: In vitro viability assay, murine MM-derived cell lines; type: cell-based, mouse; settings: 48 hours, Deep Blue Cell Viability Kit
Procedure: (§3) Mice were monitored twice weekly for signs of disease and were then sacrificed. […] The samples that were able to grow for weeks ex vivo were tested for the presence of the original transgenic lesions and then characterized. Eight MM-derived cells lines established from mice carrying different lesions. In vitro therapy assays. For viability assays, murine or human MM cells were seeded in 96-well black culture plates and treated with different drugs alone or in combination for 48 hours. Cell viability was quantified using a Deep Blue Cell Viability™ Kit (Biolegend) and analyzed with a Skanit Varioskan Flash 2.4.3 (Thermo Scientific) fluorometer. Treatments were administered to cells at a density of 0.3×10^6 cells/ml, and all tests were performed in triplicate. After treatment, cells were subjected to qRT-PCR or Western blot analyses, as indicated, according to previously reported methods.

[3] = tested on: human MM cells; assay: In vitro viability assay, human MM cell lines; type: cell-based; settings: 48 hours, Deep Blue Cell Viability Kit
Procedure: as §2, §3

[4] = tested on: MYC; assay: MYC expression and phosphorylation after treatment (Western blot, qRT-PCR), mouse MM cell lines; type: cell-based
Procedure: as §1, §3

## MYCi975
[1]
  MYC protein expression: dose-dependent MYC protein reduction
[2]
  MM cell viability: decreased viability
[3]
  MM cell viability: decreased viability
[4]
  MYC protein expression: dose-dependent MYC protein reduction
